Reference: US11006631B2, “Substituted pyrimidinyloxy pyridine derivatives as herbicides” (FMC Corporation, priority 2015, dated 2021)

Columns and labels:
Type in all cases: in vivo
[1] = test system: ragweed (common ragweed, Ambrosia elatior); assay: Test A preemergence, ragweed; conditions: 0 to 100 scale
Procedure, shortened: (§1)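 Seeds sown in loam–sand blend received a preemergence directed soil spray; postemergence plants at one- to two-leaf stage (2 to 10 cm) were sprayed. Compounds formulated in non-phytotoxic solvent with surfactant. Injury rated visually versus untreated controls after approximately 10 days in greenhouse, 0 (no effect) to 100 (complete control).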

[2] = test system: wheat (winter wheat, Triticum aestivum); assay: Test C postemergence, wheat
From the text: Seeds of plant species selected from blackgrass (Alopecurus myosuroides), ryegrass, Italian (Italian ryegrass, Lolium multiflorum), wheat (winter wheat, Triticum aestivum), galium (catchweed bedstraw, Galium aparine), corn (Zea mays), crabgrass, large (large crabgrass, Digitaria sanguinalis), foxtail, giant (giant foxtail, Setaria faberii), lambsquarters (Chenopodium album), morningglory (Ipomoea coccinea), nutsedge, yellow (yellow nutsedge, Cyperus esculentus), pigweed (Amaranthus retroflexus), johnsongrass (Sorghum halepense), ragweed (common ragweed, Ambrosia elatior), soybean (Glycine max), barnyardgrass (Echinochloa crus-galli), oilseed rape (Brassica napus), waterhemp (common waterhemp, Amaranthus rudis), chickweed (common chickweed, Stellaria media), oat, wild (wild oat, Avena fatua), kochia (Kochia scoparia), and velvetleaf (Abutilon theophrasti) were planted in pots containing Redi-Earth® planting medium (Scotts Company, 14111 Scottslawn Road, Marysville, Ohio 43041) comprising spaghnum peat moss, vermiculite, wetting agent and starter nutrients and treated with postemergence applications of a test chemical formulated in a non-phytotoxic solvent mixture which included a surfactant. […] Treated plants and controls were maintained in a greenhouse for 13 to 15 days, after which time all species were compared to controls and visually evaluated. […]

[3] = test system: blackgrass (Alopecurus myosuroides); assay: Test C postemergence, blackgrass
From the text: (§2) Seeds of plant species selected from blackgrass (Alopecurus myosuroides), ryegrass, Italian (Italian ryegrass, Lolium multiflorum), wheat (winter wheat, Triticum aestivum), galium (catchweed bedstraw, Galium aparine), corn (Zea mays), crabgrass, large (large crabgrass, Digitaria sanguinalis), foxtail, giant (giant foxtail, Setaria faberii), lambsquarters (Chenopodium album), morningglory (Ipomoea coccinea), nutsedge, yellow (yellow nutsedge, Cyperus esculentus), pigweed (Amaranthus retroflexus), johnsongrass (Sorghum halepense), ragweed (common ragweed, Ambrosia elatior), soybean (Glycine max), barnyardgrass (Echinochloa crus-galli), oilseed rape (Brassica napus), waterhemp (common waterhemp, Amaranthus rudis), chickweed (common chickweed, Stellaria media), oat, wild (wild oat, Avena fatua), kochia (Kochia scoparia), and velvetleaf (Abutilon theophrasti) were planted in pots containing Redi-Earth® planting medium (Scotts Company, 14111 Scottslawn Road, Marysville, Ohio 43041) comprising spaghnum peat moss, vermiculite, wetting agent and starter nutrients and treated with postemergence applications of a test chemical formulated in a non-phytotoxic solvent mixture which included a surfactant. Plants ranged in height from 2 to 18 cm (1- to 4-leaf stage) for postemergence treatments. Treated plants and controls were maintained in a greenhouse for 13 to 15 days, after which time all species were compared to controls and visually evaluated. Plant response ratings, summarized in Table C, are based on a scale of 0 to 100 where 0 is no effect and 100 is complete control. A dash (-) response means no test result.

[4] = test system: sedge, umbrella (small-flower umbrella sedge, Cyperus difformis); assay: Test B flooded paddy test, sedge, umbrella; conditions: Flood, 250 g ai/ha; scale of 0 to 100
Procedure, shortened: (§3)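 Scored visually 0–100 (0 no effect, 100 complete control) versus controls after 13 to 15 greenhouse days. Treatment: compound added to paddy water kept 3 cm above soil, on 2-leaf-stage plants.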

[5] = test system: johnsongrass (Sorghum halepense); assay: Test C postemergence, johnsongrass
From the text: as §2

kochia (Kochia scoparia) [6] = assay: Test A postemergence, kochia; conditions: 0 to 100 scale
Procedure, shortened: as §1

[7] = test system: chickweed (common chickweed, Stellaria media); assay: Test C postemergence, chickweed
From the text: as §2

[8] = test system: ragweed (common ragweed, Ambrosia elatior); assay: Test C postemergence, ragweed
From the text: as §2

rice (Oryza sativa) = assay: Test B flooded paddy test, rice; conditions: Flood, 250 g ai/ha; scale of 0 to 100
Procedure, shortened: as §3

[9] = test system: foxtail, giant (giant foxtail, Setaria faberii); assay: Test A preemergence, foxtail, giant; conditions: 0 to 100 scale
Procedure, shortened: as §1

[10] = test system: foxtail, giant (giant foxtail, Setaria faberii); assay: Test C postemergence, foxtail, giant
From the text: as §2

[11] = test system: barnyardgrass (Echinochloa crus-galli); assay: Test A postemergence, barnyardgrass; conditions: 0 to 100 scale
Procedure, shortened: as §1

[12] = test system: blackgrass (Alopecurus myosuroides); assay: Test A postemergence, blackgrass; conditions: 0 to 100 scale
Procedure, shortened: as §1

kochia (Kochia scoparia) [13] = assay: Test A preemergence, kochia; conditions: 0 to 100 scale
Procedure, shortened: as §1

[14] = test system: lambsquarters (Chenopodium album); assay: Test C postemergence, lambsquarters
From the text: as §2

[15] = test system: nutsedge, yellow (yellow nutsedge, Cyperus esculentus); assay: Test C postemergence, nutsedge, yellow
From the text: as §2

[16] = test system: morningglory (Ipomoea coccinea); assay: Test C postemergence, morningglory
From the text: as §2

[17] = test system: crabgrass, large (large crabgrass, Digitaria sanguinalis); assay: Test C postemergence, crabgrass, large
From the text: as §2

## FC(F)c1cc(-c2ncccc2Oc2ncc(Cl)cn2)on1 [Compound 5, 5-chloro-2-[[2-[3-(difluoromethyl)-5-isoxazolyl]-3-pyridinyl]oxy]pyrimidine]
[1]; 31 g ai/ha
  Plant response rating, Ragweed: 0
[1]; 125 g ai/ha
  Plant response rating, Ragweed: 10
[2]; 16 g ai/ha
  Plant response rating, Wheat: 5
[2]; 31 g ai/ha
  Plant response rating, Wheat: 5
[3]; 16 g ai/ha
  Plant response rating, Blackgrass: 0
[3]; 31 g ai/ha
  Plant response rating, Blackgrass: 0
[3]; 62 g ai/ha
  Plant response rating, Blackgrass: 0
[3]; 125 g ai/ha
  Plant response rating, Blackgrass: 5
[4]
  Plant response rating, Sedge, Umbrella: 80
[5]; 16 g ai/ha
  Plant response rating, Johnsongrass: 0
[5]; 31 g ai/ha
  Plant response rating, Johnsongrass: 0
[5]; 62 g ai/ha
  Plant response rating, Johnsongrass: 5
[5]; 125 g ai/ha
  Plant response rating, Johnsongrass: 10
Kochia (Kochia scoparia) [6]; 31 g ai/ha
  Plant response rating, Kochia: 80
Kochia (Kochia scoparia) [6]; 125 g ai/ha
  Plant response rating, Kochia: 90
[7]; 16 g ai/ha
  Plant response rating, Chickweed: 35
[7]; 31 g ai/ha
  Plant response rating, Chickweed: 40
[7]; 62 g ai/ha
  Plant response rating, Chickweed: 55
[7]; 125 g ai/ha
  Plant response rating, Chickweed: 60
[8]; 16 g ai/ha
  Plant response rating, Ragweed: 5
[8]; 31 g ai/ha
  Plant response rating, Ragweed: 40
[8]; 62 g ai/ha
  Plant response rating, Ragweed: 35
[8]; 125 g ai/ha
  Plant response rating, Ragweed: 65
Rice (Oryza sativa)
  Plant response rating, Rice: 0
[9]; 31 g ai/ha
  Plant response rating, Foxtail, Giant: 10
[9]; 125 g ai/ha
  Plant response rating, Foxtail, Giant: 80
[10]; 16 g ai/ha
  Plant response rating, Foxtail, Giant: 0
[10]; 31 g ai/ha
  Plant response rating, Foxtail, Giant: 5
[10]; 62 g ai/ha
  Plant response rating, Foxtail, Giant: 5
[10]; 125 g ai/ha
  Plant response rating, Foxtail, Giant: 10
[11]; 31 g ai/ha
  Plant response rating, Barnyardgrass: 0
[11]; 125 g ai/ha
  Plant response rating, Barnyardgrass: 20
[12]; 31 g ai/ha
  Plant response rating, Blackgrass: 0
[12]; 125 g ai/ha
  Plant response rating, Blackgrass: 20
Kochia (Kochia scoparia) [13]; 31 g ai/ha
  Plant response rating, Kochia: 10
Kochia (Kochia scoparia) [13]; 125 g ai/ha
  Plant response rating, Kochia: 80
[14]; 16 g ai/ha
  Plant response rating, Lambsquarters: 35
[14]; 31 g ai/ha
  Plant response rating, Lambsquarters: 70
[14]; 62 g ai/ha
  Plant response rating, Lambsquarters: 55
[14]; 125 g ai/ha
  Plant response rating, Lambsquarters: 60
[15]; 16 g ai/ha
  Plant response rating, Nutsedge, Yellow: 0
[15]; 31 g ai/ha
  Plant response rating, Nutsedge, Yellow: 10
[15]; 62 g ai/ha
  Plant response rating, Nutsedge, Yellow: 5
[15]; 125 g ai/ha
  Plant response rating, Nutsedge, Yellow: 5
[16]; 16 g ai/ha
  Plant response rating, Morningglory: 75
[16]; 31 g ai/ha
  Plant response rating, Morningglory: 65
[16]; 62 g ai/ha
  Plant response rating, Morningglory: 65
[16]; 125 g ai/ha
  Plant response rating, Morningglory: 85
[17]; 16 g ai/ha
  Plant response rating, Crabgrass, Large: 10
[17]; 31 g ai/ha
  Plant response rating, Crabgrass, Large: 15
[17]; 62 g ai/ha
  Plant response rating, Crabgrass, Large: 15
[17]; 125 g ai/ha
  Plant response rating, Crabgrass, Large: 15
